Results as given in BigSolDB 2.1.

Nc1ncnc2c1ncn2[C@@H]1O[C@H](CO)[C@@H](O)[C@H]1O
solubility (mole fraction)
Conditions	278.15 K	283.15 K	288.15 K	293.15 K	298.15 K	303.15 K	308.15 K	313.15 K	318.15 K	323.15 K
in DMF	0.00414	0.00502	0.00594	0.00687	0.00784	0.00906	0.00993	0.0108	0.012	0.0127
in DMSO	–	–	–	0.00262	0.00299	0.00348	0.00394	0.00442	0.00488	0.00537
in NMP	0.0321	0.035	0.0376	0.0407	0.0437	0.0467	0.0496	0.0522	0.0554	0.0582
in propylene glycol	0.00352	0.00375	0.004	0.00431	0.00464	0.00497	0.00537	0.0058	0.00623	0.00665
in water	0.00019	0.000237	0.00029	0.000353	0.000426	0.000516	0.000611	0.000731	0.000876	0.00105
